In patent US4950792A, “Substituted p,p'-methylene-bis-anilines” (Lonza Ltd., priority 1985, dated 1990):
One block for each compound: values may come before it.

Tests used:
[1] = thermal stability: exotherm on heating; type: physicochemical; settings: for exotherm of the product / time after which an exotherm could be determined: 350° C.
Procedure: Further, it was possible to establish that the compounds according to the invention are extremely temperature-stable. Thus, most of such compounds could be heated to 350° C. (comparison of MOCA around 200° C.) without the occurrence of an exotherm. The maximum possible working temperature with the new compounds consequently is substantially higher than with the usual chain-lengthening agents (comparison with MOCA, 140° C.). If this temperature is not used, at least the safe, decomposition-free working temperature range is substantially greater than the prior art compounds.

[2] = prior art; cited from earlier work

SMILES: Cc1cc(Cc2cc(C)c(N)c(C(C)C)c2Cl)c(Cl)c(C(C)C)c1N [Amine VII, 4,4'-Methylene-bis-(5-chloro-2-methyl-6-isopropylaniline)]
temperature up to which no exotherm could be determined [1]: > 320 °C

SMILES: CCC(C)c1c(N)c(C)cc(Cc2cc(C)c(N)c(C(C)CC)c2Cl)c1Cl (stereo not drawn) [Amine X, 4,4'-Methylene-bis(5-chloro-2-methyl-6-sec-butylaniline)]
temperature up to which no exotherm could be determined [1]: > 340 °C

exotherm of the product ([1]; over 8 hours): No exotherm
SMILES: CCC(C)c1cc(Cc2cc(C(C)CC)c(N)c(C(C)CC)c2Cl)c(Cl)c(C(C)CC)c1N (stereo not drawn) [Amine IX, 4,4'-Methylene-bis-(3-chloro-2,6-di-sec-butylaniline)]

SMILES: CCc1c(N)c(Cl)cc(Cc2cc(Cl)c(N)c(CC)c2Cl)c1Cl [Amine IV, 4,4'-Methylene-bis(2,5-dichloro-6-ethylaniline)]
exotherm of the product ([1]; time not stated): An exotherm

SMILES: CCc1cc(Cc2cc(CC)c(N)c(C)c2Cl)c(Cl)c(C)c1N [Amine VI, 4,4'-Methylene-bis-(3-chloro-2-methyl-6-ethylaniline)]
exotherm of the product ([1]; over 8 hours): No exotherm

SMILES: CCc1cc(Cc2cc(CC)c(N)c(CC)c2Cl)c(Cl)c(CC)c1N [Amine V, 4,4'-Methylene-bis-(3-chloro-2,6-diethylaniline)]
exotherm of the product ([1]; over 8 hours): No exotherm

SMILES: CCC(C)c1cc(Cc2cc(C(C)CC)c(N)c(C)c2Cl)c(Cl)c(C)c1N (stereo not drawn) [Example 9, 4,4'-Methylene-bis(3-chloro-2-methyl-6-sec-butylaniline)]
time after which an exotherm could be determined [1]: 2 h

SMILES: CCc1c(N)c(C)cc(Cc2cc(C)c(N)c(CC)c2Cl)c1Cl [Example 2, 4,4'-Methylene-bis-(5-chloro-2-methyl-6-ethylaniline)]
exotherm of the product ([1]; over 8 hours): No exotherm

SMILES: Cc1c(N)c(C(C)C)cc(Cc2cc(C(C)C)c(N)c(C)c2Cl)c1Cl [Amine VIII, 4,4'-Methylene-bis(3-chloro-2-methyl-6-isopropylaniline)]
exotherm of the product ([1]; over 8 hours): No exotherm

SMILES: Nc1ccc(Cc2ccc(N)c(Cl)c2)cc1Cl [Amine I, 4,4'-methylene-bis(2-chloroaniline), reference compound]
carcinogenicity [2]: carcinogenicity
temperature to which compound could be heated without the occurrence of an exotherm ([1]; comparison with MOCA): around 200 °C

SMILES: CC(C)c1cc(Cc2cc(C(C)C)c(N)c(C(C)C)c2Cl)c(Cl)c(C(C)C)c1N [Example 4, 4,4'-Methylene-bis(3-chloro-2,6-diisopropylaniline)]
time after which an exotherm could be determined [1]: 3 h
